Source: patent publication US20120045501A1, “CONNEXIN ENHANCES CHEMOTHERAPY-INCLUDED APOPTOSIS IN HUMAN CANCER CELLS INHIBITING TUMOR CELL PROLIFERATION” (Northwest Hospital, priority 2001, published 2012)

Experiments:
[1] = test system: Cx43-transfected cells (U251cx43-216 and U251cx43-217); assay: Apoptosis by Hoechst dye staining after Tax; assay type: cell-based, human
Method: (§1) The assay was performed as we previously described (Huang et al., Cell Death Differ. 5:96-106 (1998)). Briefly, cells were fixed in Carnoy's solution (methanol:glacial […]; 3:1) and stained with 5 μg/ml of bisbenzimide trihydrochloride (Hoechst 33258) for 20 min. The morphology of nuclei was then observed with a Zeiss (Thornwood, N.Y.) photomicroscope II. At least 500 nuclei in each cell line were counted. Experiments were repeated four times.
(§2) Cx43-transfected cells (U251cx43-216 and U251cx43-217) and control-transfected cells (U251N2 and U251N23) were treated with different concentrations of Tax (0, 10^−9, and 4×10^−9). Four days after treatment, cells were analyzed for apoptosis by Hoechst dye staining.

[2] = test system: control-transfected cells (U251N2 and U251N23); assay: Apoptosis by Hoechst dye staining after Tax; assay type: cell-based, human; conditions: 4×10^−9 M, four days after treatment
Method: as §1, §2

U251cx43-216 cells [3] = assay: Clonogenicity (cell survival) assay; assay type: cell-based, human
Method: (§3) The surviving cell fraction was determined by clonogenicity assay as previously described (Huang et al., J. Cell Biol. 133:211-220 (1996)). Cells were seeded at a density of 500 cells per 60 mm plate and incubated overnight and then treated with drugs; culture was then continued for 3 weeks. Clones were fixed in 4% formaldehyde-PBS and stained with Giemsa solution. Colonies containing more than 50 cells were counted and the fraction of surviving cells was calculated. The results represented the average of three separate experiments.
(§4) Values at OD 570 reflect the relative number of viable cells.

U251N23 cells [4] = assay: Clonogenicity (cell survival) assay; assay type: cell-based, human
Method: as §3, §4

U251cx43-216 cells [5] = assay: MTT cell viability assay; conditions: Homo sapiens, 144 h
U251N23 cells [6] = assay: MTT cell viability assay; assay type: cell-based; conditions: Homo sapiens, 144 h, day 6 after treatment, U251N23 (control-transfected)
Method: In vitro viability was determined by the 3-(4,5-dimethylthiazol-2yl)-2,5-diphenyltetrazolium bromide (MTT) colorimetric assay as described in (Huang et al., Cancer Res. 55:5054-5062 (1995)). Cells (1×10^3) were plated in triplicate in 96 well microplates overnight and treated with 5 different concentrations of VP16, Tax and DOX, respectively. […] Absorbance values at 570 nm were plotted as a measure of the relative number of cells. […] Both methods gave the identical results.
as §4

U251cx43-216 cells [7] = assay: Soft agar colony formation assay; assay type: cell-based, human
Method: (§5) Soft agar assay were performed as described previously (Huang, et al., Cancer Res. 58:5089-5096 (1998); Huang, et al., Mol. Carcinog. 30:209-217 (2001); Huang, et al., Carcinogenesis 20:485-492 (1999)). Briefly, cx43-transfected cells and control-transfected cells were assayed by seeding 1,000 cells in 0.26% agar medium into 6 well plates previously lined with 0.65% agar medium. The plates (in duplicate and repeated twice) were cultured for 3-4 weeks in the presence of different treatments and then stained with p-iodotetrazolium violet for overnight before photography and counting. Colony size equal to or greater than 15,625 μm^2 was scored as positive.
(§6) To examine the effect of down-regulation of MCP-1 on the transformed growth, cx43-transfected and control-transfected clones were assayed for their anchorage-independent growth in soft agar in the presence of MCP-1.

U251cx43-217 cells = assay: Soft agar colony formation assay; assay type: cell-based, human
Method: as §5, §6

cx43-transfected cells = assay: Cell proliferation in presence of cytokine or conditioned medium; assay type: cell-based, human
Method: The experiment was performed as described in Huang et al., (Cancer Res. 55:5054-5062 (1995); and Oncogene 10:467-475 (1995)). Briefly, cells were seeded in 96-well plates. 24 hr later, cells were incubated in the presence of cytokine or conditioned medium for 48 hours. 0.5 μCi of ^3H-thymidine was added to each well and incubation was continuous for 24 hr. The incorporated ^3H-thymidine was then determined by a scintillation counter.
The down-regulation of MCP-1 in cx43-transfected cells raised the question of whether reversion of the transformed phenotype in cx43-transfected cell was mediated by the reduction of MCP-1 expression. To test this possibility, anti-MCP-1 neutralization antibody was added into the tissue culture medium to block the MCP-1 activity and to examine the cell proliferation by CyQUANT cell proliferation assay.

[8] = test system: Cx43-transfected clones and control-transfected clones; assay: Apoptosis in the presence of MCP-1 or anti-MCP-1 antibody; assay type: cell-based, human; conditions: normal culture conditions, low serum conditions or in response to chemotherapeutic drugs
Method: Cx43-transfected clones and control-transfected clones were assayed for apoptosis in the presence of MCP-1 or anti-MCP-1 antibody. […] Therefore, enhanced apoptosis under low serum conditions and decreased cell growth in cx43-transfected cells involves at least two separate pathways.

[9] = test system: T51B rat liver epithelial cells; assay: Gap junction communication, Lucifer yellow dye transfer; assay type: cell-based
Method: (§7) Gap junctional communication (GJC) was assayed by transfer of the fluorescent Lucifer yellow (LY) after single-cell micro-injection, as described previously (Huang et al., Cancer Res. 58:5089-5096 (1998)). Cells were observed under a fluorescence-inverted microscope after micro-injection at the given time points, and the number of neighboring cells labeled with fluorescent dye was recorded.
It was next determined whether cx43-mediated apoptosis was related to gap junctional communication (GJC). […] Since Lucifer yellow dye transfer may not accurately reflect the ability of intracellular substances to pass through gap junctions, apoptosis was examined in response to VP16 in the presence of α-Glycyrrhetinic acid (GA), which inhibits GJC (Davidson et al., Biochem. Biophys. Res. Commun. 134:29-36 (1986); Davidson and Baumgarten, J. Pharmacol. Exp. Ther. 266:1104-1107 (1988)). […] Consistent with previous studies, both cx43- and control-transfected cells poorly communicated each other as examined by Lucifer yellow dye transfer experiment. The effect of GA was not obvious due to poor GJC in untreated U251 cells. […] Thus, the difference in apoptosis is probably due to the presence of cx43 itself rather than GJC. Furthermore, cx43-transfected cells expressed only non-phosphorylated cx43 in both mock- and VP 16-treated cells. […]

U251cx43-216 cells [10] = assay: as above; assay type: cell-based, human; conditions: U251cx43-216, GA 25 μM
Method: as §7
(§8) It was next determined whether cx43-mediated apoptosis was related to gap junctional communication (GJC). […] Since Lucifer yellow dye transfer may not accurately reflect the ability of intracellular substances to pass through gap junctions, apoptosis was examined in response to VP16 in the presence of α-Glycyrrhetinic acid (GA), which inhibits GJC (Davidson et al., Biochem. Biophys. Res. Commun. 134:29-36 (1986); Davidson and Baumgarten, J. Pharmacol. Exp. Ther. 266:1104-1107 (1988)). […] Consistent with previous studies, both cx43- and control-transfected cells poorly communicated each other as examined by Lucifer yellow dye transfer experiment. The effect of GA was not obvious due to poor GJC in untreated U251 cells. […] Thus, the difference in apoptosis is probably due to the presence of cx43 itself rather than GJC. Furthermore, cx43-transfected cells expressed only non-phosphorylated cx43 in both mock- and VP 16-treated cells. In contrast, when the same experimental procedure was used to detect cx43 in primary astrocytes and T51B cells, several phosphorylated isoforms were clearly observed (Huang et al., Cancer Res. 58:5089-5096 (1998)). It is generally believed that phosphorylated forms of cx43 are involved in GJC (Hossain et al., J. Cell Physiol. 174:66-77 (1998)). Therefore it is likely that cx43-mediated apoptosis in response to VP16 is not related to its gap junctional communication effect.

U251N23 cells [11] = assay: as above; assay type: cell-based, human; conditions: U251N23, GA 25 μM
Method: as §7, §8

[12] = test system: cx43- or control-transfected cells; assay: Apoptosis in response to VP16 in the presence of GA; assay type: cell-based, human; conditions: cx43- and control-transfected cells
Description: as §8, with “Therefore it is likely that cx43-mediated apoptosis in response to VP16 is not related to its gap junctional communication effect.” left out

[13] = U251cx43-216, 1 × 10^−9, 3 weeks
[14] = U251cx43-216, 4 × 10^−9, 3 weeks
[15] = U251cx43-216, 4 × 10^−10, 3 weeks

CC(=O)O[C@H]1C(=O)[C@@]2(C)[C@H]([C@H](OC(=O)c3ccccc3)[C@]3(O)C[C@H](OC(=O)[C@H](O)[C@@H](NC(=O)c4ccccc4)c4ccccc4)C(C)=C1C3(C)C)[C@]1(OC(C)=O)CO[C@@H]1C[C@@H]2O [Tax, Paclitaxel]
increase in apoptosis, cx43-expressing vs control-transfected cells ([1]; Tax treatment, four days): 3- to 4 fold | cells displaying typical features of apoptosis ([1]; cx43-transfected cells, 4×10^−9 M, four days after treatment): about 65% | apoptotic cells [2]: about 17% | Colony formation (colonies counted) (U251cx43-216 cells [3]; [13]): 9 +/− 5 | Colony formation (colonies counted) (U251cx43-216 cells [3]; [14]): 4 +/− 3 | Colony formation (colonies counted) (U251cx43-216 cells [3]; [15]): 54 +/− 5 | Colony formation (colonies counted) (U251N23 cells [4]; U251N23, 1 × 10^−9, 3 weeks): 37 +/− 6 | Colony formation (colonies counted) (U251N23 cells [4]; U251N23, 4 × 10^−9, 3 weeks): 16 +/− 2 | Colony formation (colonies counted) (U251N23 cells [4]; U251N23, 4 × 10^−10, 3 weeks): 108 +/− 9 | IC50 (U251cx43-216 cells [5]): 0.71 nM | IC50 (U251N23 cells [6]): 1.5 nM

MCP-1: Monocyte chemotactic protein-1 (MCP-1) is a member of the CC chemokine family
Colony formation in soft agar (U251cx43-216 cells [7]; U251cx43-216, MCP-1 0.1 ng/ml): 18.0 ± 2.83 | Colony formation in soft agar (U251cx43-216 cells [7]; U251cx43-216, MCP-1 1 ng/ml): 37.5 ± 3.53 | Colony formation in soft agar (U251cx43-216 cells [7]; U251cx43-216, MCP-1 10 ng/ml): 28.5 ± 4.95 | Colony formation in soft agar (U251cx43-216 cells [7]; U251cx43-216, MCP-1 100 ng/ml): 36.0 ± 5.65 | Colony formation in soft agar (U251cx43-217 cells; U251cx43-217, MCP-1 0.1 ng/ml): 18.0 ± 2.83 | Colony formation in soft agar (U251cx43-217 cells; U251cx43-217, MCP-1 1 ng/ml): 24.5 ± 2.12 | Colony formation in soft agar (U251cx43-217 cells; U251cx43-217, MCP-1 10 ng/ml): 22.5 ± 3.53 | Colony formation in soft agar (U251cx43-217 cells; U251cx43-217, MCP-1 100 ng/ml): 20.5 ± 2.12 | effect on cell proliferation rate (cx43-transfected cells): specifically stimulated | effect on apoptosis [8]: did not have any effect

CC1(C)[C@@H](O)CC[C@]2(C)[C@H]3C(=O)C=C4[C@@H]5C[C@@](C)(C(=O)O)CC[C@]5(C)CC[C@@]4(C)[C@]3(C)CC[C@@H]12 [GA, α-Glycyrrhetinic acid]
effect on GJC ([9]; T51B cells): completely blocked GJC | No. of Fluorescent Neighboring cells after GA treatment ([9]; T51B, GA 25 μM, 5 min): 0 +/− 0 | No. of Fluorescent Neighboring cells after GA treatment (U251cx43-216 cells [10]; 5 min): 0.6 +/− 1.3 | No. of Fluorescent Neighboring cells after GA treatment (U251cx43-216 cells [10]; 24 h): 0 +/− 0 | No. of Fluorescent Neighboring cells after GA treatment (U251cx43-216 cells [10]; 48 h): 0.6 +/− 1.1 | No. of Fluorescent Neighboring cells after GA treatment (U251cx43-216 cells [10]; 72 h): 0.1 +/− 0.3 | No. of Fluorescent Neighboring cells after GA treatment (U251N23 cells [11]; 5 min): 0.7 +/− 1.1 | No. of Fluorescent Neighboring cells after GA treatment (U251N23 cells [11]; 24 h): 2.2 +/− 3.7 | No. of Fluorescent Neighboring cells after GA treatment (U251N23 cells [11]; 48 h): 0.9 +/− 1.9 | No. of Fluorescent Neighboring cells after GA treatment (U251N23 cells [11]; 72 h): 2.4 +/− 4.1 | alteration of apoptosis in response to VP16 in the presence of α-Glycyrrhetinic acid [12]: No significant alteration of apoptosis

COc1cccc2c1C(=O)c1c(O)c3c(c(O)c1C2=O)C[C@@](O)(C(=O)CO)C[C@@H]3O[C@H]1C[C@H](N)[C@H](O)[C@H](C)O1 [DOX, Doxorubicin]
Colony formation (colonies counted) (U251cx43-216 cells [3]; [13]): 6 +/− 1 | Colony formation (colonies counted) (U251cx43-216 cells [3]; [14]): 2 +/− 3 | Colony formation (colonies counted) (U251cx43-216 cells [3]; [15]): 70 +/− 6 | Colony formation (colonies counted) (U251N23 cells [4]; U251N23, 1 × 10^−9, 3 weeks): 15 +/− 5 | Colony formation (colonies counted) (U251N23 cells [4]; U251N23, 4 × 10^−9, 3 weeks): 6 +/− 0 | Colony formation (colonies counted) (U251N23 cells [4]; U251N23, 4 × 10^−10, 3 weeks): 147 +/− 14 | IC50 (U251cx43-216 cells [5]): 0.82 nM | IC50 (U251N23 cells [6]): 1.77 nM
